What was measured:
Format in all cases: biochemical
PTK2 enzyme [1] = biological target: T1, PTK2 enzyme (Homo sapiens, UniProt Q05397); assay: PTK2 enzyme test, Assay 1 (DELFIA, poly-Glu-Tyr substrate, antibody PT60); details: Assay 1 (values without *); 1 h pre-incubation, 2% DMSO
T1 construct: purchased Invitrogen PV3832
Procedure, shortened: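 Active PTK2 (0.01 µg/well) preincubated 1 h at RT with compound (duplicates, 2% DMSO final), then reacted 1 h at RT with poly(Glu,Tyr) 4:1 plus biotinylated poly(Glu,Tyr) and an ATP mix containing 50 μM ATP. EDTA-stopped, streptavidin-captured product detected by Eu-PT60 anti-phosphotyrosine DELFIA; IC50 by variable-Hill sigmoid fit.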

[2] = biological target: T2, Xenopus laevis Aurora B/INCENP complex (Xenopus laevis, UniProt Q6DE08); assay: Aurora-B kinase assay (radioactive enzyme inhibition)
T2 construct: equipped at the N-terminal position with a GST tag (amino acids 60-361); GST (N, cleaved yes); made in house; host or cells: E. coli BL21 (DE3)
Description: A radioactive enzyme inhibition assay was developed using E. coli-expressed recombinant Xenopus laevis Aurora B wild-type protein equipped at the N-terminal position with a GST tag (amino acids 60-361) in a complex with Xenopus laevis INCENP (amino acids 790-847), which is obtained from bacteria and purified. In equivalent manner a Xenopus laevis Aurora B mutant (G96V) in a complex with Xenopus laevis INCENP^790-847 may also be used.
The coding sequence for Aurora-B^60-361 from Xenopus laevis is cloned into a modified version of pGEX-6T (Amersham Biotech) via BamHI and SalI cutting sites. The vector contains two cloning cassettes which are separated by a ribosomal binding site, allowing bi-cistronic expression. In this configuration Xenopus laevis Aurora B is expressed by the first cassette, and the Xenopus laevis INCENP^790-847 is expressed by the second cassette. The resulting vector is pAUB-IN^847.
First of all the E. coli strain BL21 (DE3) is co-transformed with pUBS520 helper plasmid and pAUB-IN^847, after which protein expression is induced using 0.3 mM IPTG at an OD600 of 0.45-0.7. The expression is then continued for approx. 12-16 h at 23-25° C. with agitation.
The bacteria are then removed by centrifuging and the pellet is lysed in lysis buffer (50 mM Tris/Cl pH 7.6, 300 mM NaCl, 1 mM DTT, 1 mM EDTA, 5% glycerol, Roche Complete Protease Inhibitor tablets) using ultrasound, using 20-30 mL lysis buffer per litre of E. coli culture. The lysed material is freed from debris by centrifugation (12000 rpm, 45-60 min, JA20 rotor). The supernatant is incubated with […] of equilibrated GST Sepharose Fast Flow (Amersham Biosciences) per litre of E. coli culture for 4-5 h at 4° C. Then the column material is washed with 30 volumes of lysis buffer and then equilibrated with 30 volumes of cleavage buffer (50 mM Tris/Cl pH 7.6, 150 mM NaCl, 1 mM DTT, 1 mM EDTA). To cleave the GST tag from Aurora B, 10 units of Prescission Protease (Amersham Biosciences) are used per milligram of substrate and the mixture is incubated for 16 h at 4° C. The supernatant which contains the cleavage product is loaded onto a 6 mL Resource Q column (Amersham Biosciences) equilibrated with ion exchange buffer (50 mM Tris/Cl pH 7.6, 150 mM NaCl, 1 mM DTT, 1 mM EDTA). The Aurora B/INCENP complex is caught as it flows through, then concentrated and loaded onto a Superdex 200 size exclusion chromatography (SEC) column equilibrated with SEC buffer (10 mM Tris/Cl pH 7.6, 150 mM NaCl, 1 mM DTT, 1 mM EDTA). Fractions which contain the AuroraB/INCENP complex are collected and concentrated using Vivaspin concentrators (molecular weight exclusion 3000-5000 Da) to a final concentration of 12 mg/mL. Aliquots (e.g. 240 ng/μL) for kinase assays are transferred from this stock solution into freezing buffer (50 mM Tris/Cl pH 8.0, 150 mM NaCl, 0.1 mM EDTA, 0.03% Brij-35, 10% glycerol, 1 mM DTT) and stored at −80° C.
Test substances are placed in a polypropylene dish (96 wells, Greiner #655 201), in order to cover a concentration frame of 10 μM-0.0001 μM. The final concentration of DMSO in the assay is 5%. 30 μL of protein mix (50 mM Tris/Cl pH 7.5, 25 mM MgCl2, 25 mM NaCl, 167 μM ATP, 10 ng Xenopus laevis Aurora B/INCENP complex in freezing buffer) are pipetted into the 10 μl of test substance provided in 25% DMSO and this is incubated for 15 min at RT. Then 10 μL of peptide mix (100 mM Tris/Cl pH 7.5, 50 mM MgCl2, 50 mM NaCl, 5 μM NaF, 5 μM DTT, 1 μCi gamma-P33-ATP [Amersham], 50 μM substrate peptide [biotin-EPLERRLSLVPDS or multimers thereof, or biotin-EPLERRLSLVPKM or multimers thereof, or biotin-[…]]) are added. The reaction is incubated for 75 min (ambient temperature) and stopped by the addition of 180 μL of 6.4% trichloroacetic acid and incubated for 20 min on ice. […]

PTK2 enzyme [3] = biological target: T1, PTK2 enzyme; assay: PTK2 enzyme test, Assay 2 (DELFIA, poly-Glu-Tyr substrate, antibody PT66); details: Assay 2 (values marked *); 1 h pre-incubation, 0.5% DMSO
Description: This test uses active PTK2 enzyme (Invitrogen Code PV3832) and poly-Glu-Tyr (4:1, Sigma P-0275) as the kinase substrate. The kinase activity is detected by means of the phosphorylation of the substrate in a DELFIA™ assay. The phosphorylated substrate is detected with the europium-labelled phosphotyrosine antibody PT66 (Perkin Elmer, No.: AD0040).
In order to determine concentration-activity curves with PTK2-inhibitors the compounds are serially diluted first of all in 10% DMSO/H2O and then in kinase dilution buffer (20 mM TRIS/HCl pH 7.5, 0.1 mM EDTA, 0.1 mM EGTA, 0.286 mM sodium orthovanadate, 10% glycerol with the addition of freshly prepared BSA (fraction V, 1 mg/mL) and DTT (1 mM)) and 10 μL of each dilution are dispensed per well in a 96-well microtitre plate (clear U-shaped base plate, Greiner No. 650101) (the inhibitors are tested in duplicates) and mixed with 10 μL/well of PTK2 kinase (0.01 μg/well). PTK2 kinase is diluted accordingly beforehand with kinase dilution buffer. The diluted PTK2 inhibitor and the PTK2 kinase are pre-incubated for 1 h at RT and shaken at 500 revolutions per min. Then 10 μL/well poly-Glu-Tyr substrate (25 μg/well poly-Glu-Tyr, 0.05 μg/well biotinylated poly-Glu-Tyr dissolved in 250 mM TRIS/HCl pH 7.5, 9 mM DTT) are added. The reaction is started by the addition of 20 μL of ATP Mix (30 mM TRIS/HCl pH 7.5, 0.02% Brij, 0.2 mM sodium orthovanadate, 10 mM magnesium acetate, 0.1 mM EGTA, 1× phosphatase inhibitor cocktail 1 (Sigma, No.: P2850), 50 μM ATP (Sigma, No.: A3377; 15 mM stock solution))—the final concentration of DMSO is 0.5%. After 1 h kinase reaction (the plates are shaken at 500 rpm), the reaction is stopped by the addition of 12 μL/well of 100 mM EDTA, pH 8, and shaken for a further 5 min at RT (500 U/min). 55 μL of the reaction mixture are transferred into a streptavidin plate (Strepta Well High Bind (transparent, 96-well) made by Roche, No.: 11989685001) and incubated for 1 h at RT (shaking at 500 rpm). Then the microtitre plate is washed five times with 200 μL/well D-PBS (Invitrogen, No. 14190). 100 μL of a solution containing DELFIA Eu-N1 Anti-Phosphotyrosine PT66 antibody (Perkin Elmer, No.: AD0040, diluted 1:9000 in DELFIA test buffer (Perkin Elmer, No.: 1244-111)) is then added and it is incubated for 1 h at RT (shaking at 500 rpm). Then the plate is washed five times with 200 μL/well DELFIA washing buffer (Perkin Elmer, No.: 1244-114), 200 μL/well strengthening solution (Perkin Elmer, No.: 1244-105) is added and the whole is incubated for 10 min at RT (shaking at 300 rpm).
The time-delayed europium fluorescence is then measured in a microtitre plate reader (Victor, Perkin Elmer). The positive control consists of wells that contain solvent (0.5% DMSO in test buffer) and display uninhibited kinase activity. Wells that contain test buffer instead of enzyme act as a control for the background kinase activity.
The IC50 values are determined from concentration-activity analyses by iterative calculation using a sigmoid curve analysis algorithm (FIFTY, based on Graph PAD Prism Version 3.03) with a variable Hill coefficient.

T1 sequence (Q05397 whole entry): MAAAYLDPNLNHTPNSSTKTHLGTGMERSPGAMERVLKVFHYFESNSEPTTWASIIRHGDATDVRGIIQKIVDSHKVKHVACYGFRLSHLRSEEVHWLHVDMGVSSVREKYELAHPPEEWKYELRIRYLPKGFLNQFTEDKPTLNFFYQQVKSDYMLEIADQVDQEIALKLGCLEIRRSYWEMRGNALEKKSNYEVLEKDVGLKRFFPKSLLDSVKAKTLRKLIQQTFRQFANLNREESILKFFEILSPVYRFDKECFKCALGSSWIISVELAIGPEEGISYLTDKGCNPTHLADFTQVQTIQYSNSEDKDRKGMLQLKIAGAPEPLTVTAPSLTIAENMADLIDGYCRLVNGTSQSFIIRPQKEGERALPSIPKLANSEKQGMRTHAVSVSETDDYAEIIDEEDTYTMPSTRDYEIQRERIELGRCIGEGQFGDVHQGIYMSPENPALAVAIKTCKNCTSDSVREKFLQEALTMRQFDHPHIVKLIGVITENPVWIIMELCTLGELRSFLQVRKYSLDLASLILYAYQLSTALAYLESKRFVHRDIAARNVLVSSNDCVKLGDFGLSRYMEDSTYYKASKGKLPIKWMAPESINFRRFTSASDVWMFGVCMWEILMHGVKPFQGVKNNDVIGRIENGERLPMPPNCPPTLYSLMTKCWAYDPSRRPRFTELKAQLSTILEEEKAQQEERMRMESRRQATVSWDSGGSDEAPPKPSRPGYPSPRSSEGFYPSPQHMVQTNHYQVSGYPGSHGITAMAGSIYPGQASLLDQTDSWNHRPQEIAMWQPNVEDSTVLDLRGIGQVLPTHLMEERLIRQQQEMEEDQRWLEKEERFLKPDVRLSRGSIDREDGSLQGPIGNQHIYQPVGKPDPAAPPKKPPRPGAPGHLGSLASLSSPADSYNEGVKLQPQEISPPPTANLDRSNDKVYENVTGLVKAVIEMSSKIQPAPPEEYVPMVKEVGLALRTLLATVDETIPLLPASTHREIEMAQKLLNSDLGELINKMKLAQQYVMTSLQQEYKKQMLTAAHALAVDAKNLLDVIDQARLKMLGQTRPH
T2 sequence (Q6DE08 60-361): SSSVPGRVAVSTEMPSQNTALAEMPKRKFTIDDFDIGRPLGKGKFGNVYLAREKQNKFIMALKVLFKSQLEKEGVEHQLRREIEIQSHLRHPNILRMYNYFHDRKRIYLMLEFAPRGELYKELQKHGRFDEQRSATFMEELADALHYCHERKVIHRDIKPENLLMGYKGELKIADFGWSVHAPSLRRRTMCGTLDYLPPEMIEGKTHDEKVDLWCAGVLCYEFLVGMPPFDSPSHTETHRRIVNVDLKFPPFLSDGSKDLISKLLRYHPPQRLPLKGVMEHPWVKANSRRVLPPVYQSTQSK
T2 sequence (O13024 790-847 partner): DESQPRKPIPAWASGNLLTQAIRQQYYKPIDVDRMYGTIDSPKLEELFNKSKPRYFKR

IC50 (PTK2 enzyme [1]) [nM] | IC50 [2] [nM] | IC50 (PTK2 enzyme [3]) [nM] | Structure (SMILES)
0.8 | 280 | – | COc1cc(C(=O)NC2CCN(C)CC2)ccc1Nc1ncc(C(F)(F)F)c(N[C@@H]2CCCC[C@H]2N(C)S(C)(=O)=O)n1 [Example I-90, 4-{4-[(1R,2R)-2-(methanesulphonyl-methyl-amino)-cyclohexylamino]-5-trifluoromethyl-pyrimidin-2-ylamino}-3-methoxy-N-(1-methyl-piperidin-4-yl)-benzamide]
1 | 264 | – | CCN([C@@H]1CCCC[C@H]1Nc1nc(Nc2ccc(C(=O)NC3CCN(C)CC3)cc2OC)ncc1C(F)(F)F)S(C)(=O)=O [Example I-91]
0.86 | 4040 | – | COc1cc(C(=O)NC2CCN(C)CC2)c(C)cc1Nc1ncc(C(F)(F)F)c(N[C@@H]2CCCC[C@H]2N(C)S(C)(=O)=O)n1 [Example I-93]
0.81 | 241 | – | COc1cc(C(=O)NC2CCN(C)CC2)ccc1Nc1ncc(C(F)(F)F)c(N[C@@H]2CCC[C@H]2N(C)S(C)(=O)=O)n1 [Example I-124, 4-{4-[(1R,2R)-2-(methanesulphonyl-methyl-amino)-cyclopentylamino]-5-trifluoromethyl-pyrimidin-2-ylamino}-3-methoxy-N-(1-methyl-piperidin-4-yl)-benzamide]
0.93 | 257 | – | COc1cc(C(=O)NC2CCN(C)CC2)ccc1Nc1ncc(C(F)(F)F)c(N[C@@H]2CCCC[C@H]2NS(C)(=O)=O)n1 [Example I-125, 4-[4-((1R,2R)-2-methanesulphonylamino-cyclohexylamino)-5-trifluoromethyl-pyrimidin-2-ylamino]-3-methoxy-N-(1-methyl-piperidin-4-yl)-benzamide]
– | – | 0.24 | COCCN1CCC(NC(=O)c2cc(OC)c(Nc3ncc(C(F)(F)F)c(N[C@@H]4CCC[C@H]4N(C)S(C)(=O)=O)n3)cc2F)CC1 [Example I-130]
– | – | 0.28 | COc1cc(C(=O)NN2CCN(C)CC2)c(F)cc1Nc1ncc(C(F)(F)F)c(N[C@@H]2CCC[C@H]2N(C)S(C)(=O)=O)n1 [Example I-136]
– | – | 0.49 | COc1cc(N2CCN(C)CC2)c(Cl)cc1Nc1ncc(C(F)(F)F)c(N[C@@H]2CCC[C@H]2N(C)S(C)(=O)=O)n1 [Example I-139]
– | – | 0.67 | COc1cc(C(=O)NC2CCN(C)CC2)ccc1Nc1ncc(C(F)(F)F)c(N[C@@H]2CC=CC[C@H]2N(C)S(C)(=O)=O)n1 [Example I-151]
– | – | 0.9 | COc1cc(NC(C)=O)c(F)cc1Nc1ncc(C(F)(F)F)c(N[C@@H]2CCCC[C@H]2N(C)S(C)(=O)=O)n1 [Example I-159]
– | – | 0.71 | CCc1cc(Nc2ncc(C(F)(F)F)c(N[C@@H]3CCCC[C@H]3N(C)S(C)(=O)=O)n2)c(OC)cc1N1CCN(C)CC1 [Example I-160]
– | – | 0.44 | COc1ccc(C(=O)N(C)C2CCN(C)CC2)cc1Nc1ncc(C(F)(F)F)c(N[C@@H]2CCC[C@H]2N(C)S(C)(=O)=O)n1 [Example I-176]
– | – | 0.46 | COc1ccc(C(=O)NC2CCN(C)CC2)cc1Nc1ncc(Cl)c(N[C@@H]2CCC[C@H]2N(C)S(C)(=O)=O)n1 [Example I-179]
– | – | 0.43 | COc1ccc(C(=O)NC2CCN(C)CC2)cc1Nc1ncc(C(F)(F)F)c(N[C@@H]2CCCC[C@H]2NC(C)=O)n1 [Example I-180]
– | – | 0.43 | COCCNC(=O)c1ccc(OC)c(Nc2ncc(C(F)(F)F)c(N[C@@H]3CCCC[C@H]3NS(C)(=O)=O)n2)c1 [Example I-181]
– | – | 1 | COc1cc(N2CCN(C(C)(C)C)CC2)c(C)cc1Nc1ncc(Cl)c(N[C@@H]2CCCC[C@H]2N(C)S(C)(=O)=O)n1 [Example I-184]
– | – | 1 | COc1cc(N2CCN(C(C)(C)C)CC2)c(Cl)cc1Nc1ncc(Cl)c(N[C@@H]2CCCC[C@H]2N(C)S(C)(=O)=O)n1 [Example I-185]
– | – | 10 | COc1ccc(NC(=O)[C@@H]2CCCN2C)cc1Nc1ncc(Cl)c(N[C@@H]2CCCC[C@H]2N(C)S(C)(=O)=O)n1 [Example I-191]
– | – | 2 | COc1ccc(NC(=O)C2CCN(C)CC2)cc1Nc1ncc(Cl)c(N[C@@H]2CCCC[C@H]2N(C)S(C)(=O)=O)n1 [Example I-192]
– | – | 0.72 | COc1cc(F)c(C(=O)NC2CCOCC2)cc1Nc1ncc(C(F)(F)F)c(N[C@@H]2CCCC[C@H]2NS(C)(=O)=O)n1 [Example I-193]
– | – | 0.71 | CNC(=O)c1cc(Nc2ncc(C(F)(F)F)c(N[C@@H]3CCCC[C@H]3NS(C)(=O)=O)n2)c(OC)cc1F [Example I-194]

Source: patent US20110071158A1, “NEW COMPOUNDS” (BOEHRINGER INGELHEIM INTERNATIONAL GMBH, priority 2009, published 2011)
